Assay results taken from patent publication US8653054B2, “2-(N-substituted piperazinyl) steroid derivatives” (Universite Laval, priority 2008, dated 2014).
Like-named read-outs stand apart in the source and are kept apart here.

Columns and labels:
[1] = Plasmatic concentration (AUC) of aminosteroids after a single subcutaneous injection in rat; conditions: 2.3 mg/kg; for AUC (0-3 h) / AUC (0-12 h): Table 6, subcutaneous one time; for AUC (7 h) / AUC (24 h) / AUC(12 h): Table 5, subcutaneous one time
Experimental: (§1) Animals: Six to seven week-old male Sprague-Dawley rats (Crl:CD®(SD)Br VAF/Plus™) weighing approximately 220 g were obtained from Charles-River, Inc (St-Constant, Qc., Canada). The animals were acclimatized to environmental conditions (temperature: 22±3° C.; humidity: 50±20%; 12-h light/12-h dark cycles, lights on at 07:15 h) for at least 5 days before starting the experiment. The animals were housed three per cage and were allowed free access to water and a certified commercial rodent food (Rodent Diet #T.2018.15, Harlan Teklad, Madison, Wis., U.S.A.) and were randomized according to their body weight.
(§2) Assay: A pharmacokinetic study was carried out following one subcutaneous (s.c.) injection of the aminosteroids at one concentration (2.3 mg/kg of body weight in 0.5 mL of vehicle fluid). The compound was first dissolved in Ethanol (EtOH) followed by the addition of propylene glycol such that a final concentration of EtOH of 8% was obtained. During this experiment, the rats were housed individually and were fasted for 8h before injection of the aminosteroid. Blood samples for determination of aminosteroid plasma concentration were collected at the jugular vein (0.4 mL by animal) at target intervals of 3, 7, 12 and 24 h (or 3 and 12 h) post-dose from six rats per time point (Tables 5, 6 and 7). After the collect at 7 h, a replacement fluid (0.9% sodium chloride injection USP) was injected in the rat. Blood samples were collected in Microvette potassium-EDTA (ethylenediamine tetra-acetic acid)-coated tubes (Sarstedt, Aktiengesellchaft & Co, Germany) and centrifuged at 3200 rpm for 10 minutes at 4° C. The plasma was collected and stored at −80° C. until analyzed by liquid chromatography/mass spectrometry/mass spectrometry (LC/MS/MS) analysis.
(§3) Aminosteroid measurement: The concentration of the aminosteroid was determined by LC/MS/MS analysis using a procedure developed at the CHUQ (CHUL)—Research Center (Québec, Qc, Canada). Briefly, for extraction from serum, 100 νL, of the serum sample was transferred to individual tubes and 600 μL of ammonium acetate (1 mM) was added. A methanolic solution (50 μL) containing a steroidal internal standard was then added to each tube. Samples were transferred on Strata-X SPE columns (Phenomenex, Torrance, Calif., USA), which have been conditioned with 2 mL of MeOH and 2 mL of water. Each column was washed with 2 mL of MeOH:water (10:90, v/v). The aminosteroid was then eluted with 5 mL of MeOH containing 5 mM ammonium acetate. The MeOH was evaporated at 45° C. under inert atmosphere and the dried residue dissolved in 100 μL of MeOH:water (85:15, v/v). […] The inhibitor was detected using an API 3000 mass spectrometer, equipped with TurbolonSpray (Applied Biosystems, Canada). ESI in positive ion mode was used.

[2] = test system: HL-60 acute promyelocytic leukemia cells; test: Cell proliferation assay (MTS) on HL-60 leukemia cells; assay type: cell-based, human;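 also: cells exposed to serially diluted compound for 3 days at 37 °C, then viable cell number read via MTS conversion to coloured formazan by metabolically active cells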
Experimental: (§4) All of the following cell lines were maintained under a CO2 humidified atmosphere at 37° C. The culture media were changed every 3-4 days and the cells were split once a week.
(§5) For the assay, the culture medium was the same.
(§6) The cell proliferation assay was performed using 3-(4,5-dimethylthiazol-2-yl)-5-(3-carboxymethoxyphenyl)2-(4-sulfophenyl)-2H-tetrazolium (MTS) (Cell Titer 96 Aqueous, Promega, USA). MTS is converted into water-soluble colored formazan by dehydrogenase enzymes present in metabolically active cells, which allows the measurement of the number of viable cells.
(§7) The cells were incubated at 37° C. and 5% CO2. The steroid derivatives of the present disclosure were dissolved in ethanol to prepare the 1×10^−2 M stock solutions. The stock solutions and doxorubicin (DOX) (Novapharm, Toronto, Canada) were diluted at multiple concentrations with culture media, added to each well, as indicated, and incubated for 3 days. Following each treatment, 20 μl MTS was added to each well and the mix was incubated for 4 h.

in vivo = conditions: male, Sprague-Dawley, rat, sc, 2.3 mg/kg
Experimental: as §1, §2, §3

[3] = test system: WI-38 diploid fibroblasts; test: Cell proliferation assay (MTS) on WI-38 normal fibroblasts; assay type: cell-based, human; conditions: Table 3, normal cells, 3 days incubation
Experimental: WI-38 diploid fibroblasts derived from embryonic human lung were cultured in MEM (devoid of the pH indicator phenol red) supplemented with 10% (v/v) FBS, L-glutamine (2 nM), penicillin (100 IU/ml), streptomycin sulphate (50 μg/ml), sodium pyruvate (1 mM) and non-essential amino acids (0.1 mM).
as §6, §7

[4] = test system: normal lymphocytes from peripheral blood; test: Cell proliferation assay (MTS) on normal lymphocytes; conditions: read-out: IC50 Lymph Norm.
[5] = test system: MCF-7 breast cancer cells; test: Cell proliferation assay (MTS) on MCF-7 breast cancer cells; assay type: cell-based, human; conditions: Table 3, 3 days incubation
Experimental: MCF-7 breast cancer cells were maintained in Dulbecco's Modified Eagle's Medium (DMEM) containing a nutriment mixture F-12 ham (DME-F12) (Sigma, Saint Louis, USA) supplemented with 5% (v/v) fetal bovine serum (FBS), L-glutamine ([…]), penicillin (100 IU/ml), streptomycin sulphate (50 μg/ml) and estradiol (1 nM). For the assay, DME-F12 was supplemented with 5% (v/v) charcoal-strippes FBS, insulin (50 ng/ml) and the same concentrations of antibiotics as above.

[6] = test system: PC-3 (AR−) prostate cancer cells; test: Cell proliferation assay (MTS) on PC-3 (AR−) prostate cancer cells; assay type: cell-based; conditions: Table 3, 3 days incubation
Experimental: as §4, §5, §6, §7

K-562 leukemia cells = test: Cell proliferation assay (MTS) on K-562 leukemia cells; assay type: cell-based; conditions: Table 3, 3 days incubation
Experimental: as §4, §5, §6, §7

[7] = test system: OVCAR-3 ovarian cancer cells; test: Cell proliferation assay (MTS) on OVCAR-3 ovarian cancer cells; assay type: cell-based
Source text: For the assay, the culture medium was the same, but without estradiol.

[8] = test system: Shionogi mammary carcinoma cells (AR+); test: Cell proliferation assay (MTS) on Shionogi mammary carcinoma cells; assay type: cell-based; conditions: Table 3, 3 days incubation
Experimental: Shionogi mammary carcinoma cells bearing androgen-sensitive (AR+) were routinely grown in Eagle's Minimal Essential Medium (MEM) (Sigma, Saint Louis, USA) supplemented with 5% (v/v) fetal bovine serum (FBS), penicillin (100 IU/ml), streptomycin sulphate (50 μg/ml), 1% (v/v) non-essential amino acids and dihydrotestosterone DHT (10^−8 M). For the assay, MEM devoid of the pH indicator phenol red was supplemented with 2% (v/v) charcoal-strippes FBS and the same concentrations of antibiotics and non-essential amino acids as above.

[9] = test system: LNCaP prostate cancer cells; test: Cell proliferation assay (MTS) on LNCaP prostate cancer cells; assay type: cell-based; conditions: Table 3, 3 days incubation
Experimental: as §6, §7

[10] = test system: MDA-MB-231 (ER−) breast cancer cells; test: Cell proliferation assay (MTS) on MDA-MB-231 (ER−) breast cancer cells; assay type: cell-based; conditions: Table 3, 3 days incubation
Experimental: as §4, §5, §6, §7

[11] = Table 4, HL-60 cancer cell line, read-out: IC50
[12] = Table 6, HL-60 cancer cell line, read-out: IC50 (HL-60)
[13] = Homo sapiens, Table 4, HL-60 cancer cell line, read-out: IC50
[14] = Homo sapiens, Table 6, HL-60 cancer cell line, read-out: IC50 (HL-60)
[15] = Homo sapiens, OVCAR-3, 72 h, Table 3, 3 days incubation, MTS
[16] = Homo sapiens, HL-60, 72 h, Table 3, 3 days incubation, MTS, read-out: IC50 HL-60
[17] = Table 3, normal lymphocytes, 3 days incubation, MTS
[18] = Table 3, 3 days incubation, MTS
[19] = Table 3, 3 days incubation, MTS, read-out: IC50 HL-60

C#C[C@]1(O)CC[C@H]2[C@@H]3CC[C@H]4C[C@H](O)[C@@H](N5CCN(C(=O)[C@@H]6CCCN6C(=O)c6ccc7ccccc7c6)CC5)C[C@]4(C)[C@H]3CC[C@@]21C [26 (AH-71), {4-[(2β,3α,5α,17α)-3,17-dihydroxypregn-20-yn-2-yl]piperazin-1-yl}[(2S)-1-(naphthalen-2-ylcarbonyl)pyrrolidin-2-yl]methanone]
AUC (0-3 h) [1]: 278 ng·h/mL | AUC (0-12 h) [1]: 1338 ng·h/mL | IC50 [2, 11]: 1900 nM | IC50 [2, 12]: 1900 nM

C[C@]12C[C@H](N3CCN(C(=O)[C@@H]4CCCN4C(=O)c4ccc5ccccc5c4)CC3)[C@@H](O)C[C@@H]1CC[C@@H]1[C@@H]2CC[C@@]2(C)[C@H]1CC[C@]2(C)O [30 (AH-56), {4-[(2β,3α,17β)-3,17-dihydroxy-17-methylandrostan-2-yl]piperazin-1-yl}[(2S)-1-(naphthalen-2-ylcarbonyl)pyrrolidin-2-yl]methanone]
AUC (0-3 h) [1]: 183 ng·h/mL | AUC (0-12 h) [1]: 876 ng·h/mL | IC50 [2, 11]: 4700 nM | IC50 [2, 12]: 4700 nM

C[C@]12CC[C@H]3[C@@H](CCC4C[C@H](O)[C@@H](N5CCN(C(=O)[C@@H]6CCCN6C(=O)c6cc7ccccc7cn6)CC5)C[C@@]43C)[C@@H]1CC[C@@H]2O (stereo partly drawn) [31 (AH-38), {4-[(2β,3α,17β)-3,17-dihydroxyandrostan-2-yl]piperazin-1-yl}[(2S)-1-(isoquinolin-3-ylcarbonyl)pyrrolidin-2-yl]methanone]
IC50 [2, 13]: 1600 nM | IC50 [2, 14]: 1600 nM | AUC(0-t) (in vivo; AUC (0-3 h)): 244 ng·h/mL | AUC(0-t) (in vivo; AUC (0-12 h)): 991 ng·h/mL

C[C@]12CC[C@H]3[C@@H](CCC4C[C@H](O)[C@@H](N5CCN(C(=O)[C@@H]6CCCN6C(=O)c6ccc7ncccc7c6)CC5)C[C@@]43C)[C@@H]1CC[C@@H]2O (stereo partly drawn) [32 (AH-47), {4-[(2β,3α,17β)-3,17-dihydroxyandrostan-2-yl]piperazin-1-yl}[(2S)-1-(quinolin-6-ylcarbonyl)pyrrolidin-2-yl]methanone]
IC50 [2, 13]: 4700 nM | IC50 [2, 14]: 4700 nM | AUC(0-t) (in vivo; AUC (0-3 h)): 292 ng·h/mL | AUC(0-t) (in vivo; AUC (0-12 h)): 1170 ng·h/mL

C[C@]12CC[C@H]3[C@@H](CCC4C[C@H](O)[C@@H](N5CCN(C(=O)[C@@H]6CCCN6C(=O)c6ccc7ccccc7n6)CC5)C[C@@]43C)[C@@H]1CC[C@@H]2O (stereo partly drawn) [33 (AH-62), {4-[(2β,3α,17β)-3,17-dihydroxyandrostan-2-yl]piperazin-1-yl}[(2S)-1-(quinolin-2-ylcarbonyl)pyrrolidin-2-yl]methanone]
IC50 [2, 13]: 1400 nM | IC50 [2, 14]: 1400 nM | AUC(0-t) (in vivo; AUC (0-3 h)): 185 ng·h/mL | AUC(0-t) (in vivo; AUC (0-12 h)): 752 ng·h/mL

CO[C@H]1CC[C@H]2[C@@H]3CCC4C[C@H](O)[C@@H](N5CCN(C(=O)[C@@H]6CCCN6C(=O)c6ccc7ccccc7c6)CC5)C[C@]4(C)[C@H]3CC[C@]12C (stereo partly drawn) [37 (AH-55), {4-[(2β,3α,17β)-3-hydroxy-17-methoxyandrostan-2-yl]piperazin-1-yl}[(2S)-1-(naphthalen-2-ylcarbonyl)pyrrolidin-2-yl]methanone]
IC50 [2, 13]: 4500 nM | IC50 [2, 14]: 4500 nM | AUC(0-t) (in vivo; AUC (0-3 h)): 50 ng·h/mL | AUC(0-t) (in vivo; AUC (0-12 h)): 234 ng·h/mL

C[C@]12C[C@H](N3CCN(C(=O)[C@@H]4CCCN4C(=O)c4ccc5ccccc5c4)CC3)[C@@H](OC(=O)c3ccccc3C(=O)O)C[C@@H]1CC[C@@H]1[C@@H]2CC[C@]2(C)[C@@H](OC(=O)c3ccccc3C(=O)O)CC[C@@H]12 [38 (AH-75), 2,2′-{[(2β,3α,5α,17β)-2-{4-[1-(naphthalen-2-ylcarbonyl)-L-prolyl]piperazin-1-yl}androstane-3,17-diyl]bis(oxycarbonyl)}dibenzoic acid]
IC50 [2, 13]: > 10000 nM | IC50 [2, 14]: > 10000 nM | AUC(0-t) (in vivo; AUC (0-3 h)): 38 ng·h/mL | AUC(0-t) (in vivo; AUC (0-12 h)): 72 ng·h/mL

C[C@]12CC[C@H]3[C@@H](CCC4C[C@H](OS(N)(=O)=O)[C@@H](N5CCN(C(=O)[C@@H]6CCCN6C(=O)c6ccc7ccccc7c6)CC5)C[C@@]43C)[C@@H]1CC[C@@H]2OS(N)(=O)=O (stereo partly drawn) [39 (AH-70), (2β,3α,17β)-2-{4-[1-(naphthalen-2-ylcarbonyl)-L-prolyl]piperazin-1-yl}androstane-3,17-diyl disulfamate]
IC50 [2, 13]: 5000 nM | IC50 [2, 14]: 5000 nM | AUC(0-t) (in vivo; AUC (0-3 h)): 11 ng·h/mL | AUC(0-t) (in vivo; AUC (0-12 h)): 67 ng·h/mL

COc1cccc2c1C(=O)c1c(O)c3c(c(O)c1C2=O)C[C@@](O)(C(=O)CO)C[C@@H]3O[C@H]1C[C@H](N)[C@H](O)[C@H](C)O1 [Doxorubicin, reference compound]
IC50 ([3]; Homo sapiens, WI-38, 72 h): 3000 nM | IC50 ([4]; Lymphocyte, 72 h): 160 nM | IC50 ([5]; Homo sapiens, MCF7, 72 h): > 10000 nM | IC50 ([6]; PC3/AR, 72 h): 900 nM | IC50 (K-562 leukemia cells; Homo sapiens, K562, 72 h): 400 nM | IC50 ([7]; Homo sapiens, OVCAR-3): 900 nM | IC50 [7, 15]: 900 nM | IC50 ([8]; 72 h): 1300 nM | IC50 [2, 16]: 80 nM | IC50 ([9]; Homo sapiens, LNCaP, 72 h): 100 nM | IC50 ([10]; Homo sapiens, MDA-MB-231, 72 h): 900 nM

CC[C@]1(O)CC[C@H]2[C@@H]3CC[C@H]4C[C@H](O)[C@@H](N5CCN(C(=O)[C@@H]6CCCN6C(=O)c6cccc7ccccc67)CC5)C[C@]4(C)[C@H]3CC[C@@]21C [LPC-37]
AUC (7 h) [1]: 372 ng·h/mL | AUC (24 h) [1]: 681 ng·h/mL | AUC(12 h) [1]: 525 ng·h/mL

C[C@]12C[C@H](N3CCN(C(=O)[C@@H]4CCCN4C(=O)c4ccc(C#N)cc4)CC3)[C@@H](O)C[C@@H]1CC[C@@H]1[C@@H]2CC[C@]2(C)[C@@H](O)CC[C@@H]12 [PC-41, 4-{[(2S)-2-({4-[(2β,3α,5α,17β)-3,17-dihydroxyandrostan-2-yl]piperazin-1-yl}carbonyl)pyrrolidin-1-yl]carbonyl}benzonitrile]
IC50 ([3]; Homo sapiens, WI-38, 72 h): > 10000 nM | IC50 ([4]; Lymphocyte, 72 h): 19300 nM | IC50 ([5]; Homo sapiens, MCF7, 72 h): 400 nM | IC50 ([6]; PC3/AR, 72 h): 6500 nM | IC50 (K-562 leukemia cells; Homo sapiens, K562, 72 h): > 10000 nM | IC50 [7, 15]: 800 nM | IC50 ([8]; 72 h): 200 nM | IC50 [2, 16]: 3100 nM | IC50 ([9]; Homo sapiens, LNCaP, 72 h): 1000 nM | IC50 ([10]; Homo sapiens, MDA-MB-231, 72 h): > 10000 nM

C[C@]12C[C@H](N3CCN(C(=O)[C@@H]4CCCN4C(=O)/C=C/c4ccccc4)CC3)[C@@H](O)C[C@@H]1CC[C@@H]1[C@@H]2CC[C@]2(C)[C@@H](O)CC[C@@H]12 [PC-42]
IC50 [3]: > 10000 nM | IC50 [4, 17]: 7900 nM | IC50 [5]: 400 nM | IC50 [6]: 4000 nM | IC50 (K-562 leukemia cells): 9300 nM | AUC (7 h) [1]: 641 ng·h/mL | AUC (24 h) [1]: 767 ng·h/mL | AUC(12 h) [1]: 751 ng·h/mL | IC50 [7, 18]: 800 nM | IC50 [8]: 200 nM | IC50 [2, 19]: 1500 nM | IC50 [9]: 500 nM | IC50 [10]: > 10000 nM

C=C(C)[C@H]1CC=C(C(=O)N2CCC[C@H]2C(=O)N2CCN([C@H]3C[C@@]4(C)[C@@H](CC[C@@H]5[C@@H]4CC[C@]4(C)[C@@H](O)CC[C@@H]54)C[C@@H]3O)CC2)CC1 [PC-46]
IC50 [3]: > 10000 nM | IC50 [4, 17]: 9300 nM | IC50 [5]: 700 nM | IC50 [6]: 4000 nM | IC50 (K-562 leukemia cells): 14100 nM | AUC (7 h) [1]: 771 ng·h/mL | AUC (24 h) [1]: 830 ng·h/mL | AUC(12 h) [1]: 830 ng·h/mL | IC50 [7, 18]: 1300 nM | IC50 [8]: 200 nM | IC50 [2, 19]: 1900 nM | IC50 [9]: 900 nM | IC50 [10]: > 10000 nM
